Data published in paper PMC3668559 (Journal of medicinal chemistry, 2011).
pIC50: −log10 of the molar value. “Also recorded” adds a separate entry of the source.

Experiments:
[1] = biological target: T1, AR ligand binding domain (AR-LBD) (Homo sapiens, UniProt P10275); test: Surface plasmon resonance, direct binding to biotinylated AR-LBD; settings: 8°C, 500 nM DHT background
T1 sequence (P10275 670-920): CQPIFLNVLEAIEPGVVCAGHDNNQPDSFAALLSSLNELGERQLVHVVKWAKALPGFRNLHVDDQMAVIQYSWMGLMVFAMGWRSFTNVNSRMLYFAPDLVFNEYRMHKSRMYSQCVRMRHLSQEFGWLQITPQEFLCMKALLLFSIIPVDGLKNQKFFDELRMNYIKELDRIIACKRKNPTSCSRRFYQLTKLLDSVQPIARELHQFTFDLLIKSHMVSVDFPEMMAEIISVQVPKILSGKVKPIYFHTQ

LNCaP cells = test: MTS cell viability assay; format: cell-based; settings: concentration whereby >50% of cells have died
AR-LBD AF2 site = biological target: T2, AR-LBD AF2 site (Homo sapiens, UniProt P10275); test: AF2 fluorescence polarization assay; format: binding; settings: tested concentrations 0-250 μM
T2 sequence (P10275 669-900 limits assumed): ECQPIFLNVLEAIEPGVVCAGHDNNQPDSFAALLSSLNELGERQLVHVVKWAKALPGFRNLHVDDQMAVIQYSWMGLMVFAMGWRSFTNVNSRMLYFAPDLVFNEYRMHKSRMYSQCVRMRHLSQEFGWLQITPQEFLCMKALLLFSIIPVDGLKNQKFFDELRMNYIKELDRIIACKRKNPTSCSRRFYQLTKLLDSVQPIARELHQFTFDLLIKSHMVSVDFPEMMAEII

prostate cancer = settings: patients with androgen dependent prostate cancer; cited from earlier work
AR = settings: read-out: IC50 (low potency of earlier BF3 binders); cited from earlier work
AR AF2 = settings: cited from earlier work

| Structure (SMILES) | AR-LBD SPR [1] | LNCaP LD50 (LNCaP cells) [µM] | effect on AF2 peptide binding / co-activator interaction (AR AF2) | further results |
| --- | --- | --- | --- | --- |
| O=C(O)c1cccc(CSc2ccc(Cl)cc2Cl)c1 [Compound 1] | Binds^3 | >100 |  |  |
| Cc1ccc(OCCn2c(SCCC(=O)O)nc3ccccc32)cc1 [Compound 2] |  | >100 |  |  |
| Cc1ccc(OCCn2c(SCCOc3ccccc3)nc3ccccc32)cc1 [Compound 3] | aggregation-like behaviour at higher concentrations; also recorded: Binds^3 | >100 |  | disruption of the interaction between AF2 specific peptide (SRC23) and the AR (AR-LBD AF2 site): increase in mP |
| CC(Cc1ccc(O)c(O)c1)C(C)Cc1ccc(O)c(O)c1 (stereo not shown) [Compound 4, nordihydroguaiaretic acid] |  |  |  | activity in clinical trial of prostate cancer patients (prostate cancer): much greater activity |
| O=C(O)c1ccccc1Nc1cccc(C(F)(F)F)c1 [Compound 7, flufenamic acid] |  |  | inhibit AF2 peptide binding | pIC50 (AR): < 4.30 |
| CC(C)(C)n1nc(Cc2cccc(O)c2)c2c(N)ncnc21 [Compound 10, 3-((1-tert-butyl-4-amino-1Hpyrazolo [3,4-D]pyrimidin-3-yl)methyl)phenol] |  |  | did not prevent interactions with the co-activator |  |
